Legend:
C. autoethanogenum = assay: Balch tube batch growth of homoacetogen C. autoethanogenum on fructose, optical density; format: cell-based; details: added 21 h after inoculation
Method: These compounds were first tested to determine their effect on a known homoacetogen. Each compound was tested in a series of batch experiments to determine the growth response of a homoacetogen to the presence of the compound at varying concentrations. The batch experiments were all conducted by anoxically filling a Balch tube with 5 ml of a fermentation medium having the composition given in Tables 2 and 3. To expedite results, these batch experiments used fructose as the growth nutrient source for bacteria. Thus, the media included a 5 g/L of fructose.
Each tube was inoculated with 0.5 ml of the same strain of C. autoethanogenum bacteria seed culture inoculum. The tubes were maintained at a temperature of 37° C. Twenty one hours after the inoculation of the tube with the bacteria, the different crotonate derivatives from Table 1 were added to different tubes in the amounts indicated in Table 4 This was at a time of early to mid-log phase growth for the bacteria. Each fermentation of the bacteria in the media at the different concentration of crotonate derivatives were allowed to progress and were monitored to determine the bacteria growth at selected intervals of time varying from approximately 20 hours to 190 hours. Growth at the intervals was measured by reading the optical density (OD) of the fermentation liquid. Optical density was measured using a Spectronic Spec 20 (Thermo Spectronic) at a wavelength of 600 nm. The OD of the Balch tube culture was measured directly in the tube using absorbance mode on the Spec 20 machine. The machine was set to zero absorbance by first measuring and adjusting the setting to zero absorbance using media only as a blank. This process was repeated at each indicated time point throughout the experiment. The ability of a tube fermentation at a particular concentration of crotonate derivative to reach a predetermined optical density was recorded in Table 4. Table 4 indicates the presence of bacterial growth to an OD of approximately 2 or above with a “+”, and to an optical density in a range of 0.5 to 1.5 as a “+/−”, and indicates the failure of bacterial growth to reach an optical density of approximately 0.5 as a “−”.

[1] = system: Clostridium tyrobutyricum; assay: Balch tube batch growth of strict butyrogen Clostridium tyrobutyricum on fructose, optical density; format: cell-based; details: added 21 h after inoculation
Method: Similar experiments were conducted to make a preliminary determination as to which of the crotonate and crotonate-like compounds would act as butyrogen retardants. For this purpose the selected compounds were tested again in a series of batch experiments to determine the growth response of butyrogens to the presence of the compound at varying concentrations. The batch experiments were all conducted by anoxically filling a 20 ml Balch tube with 5 ml of a fermentation medium having the composition given in Tables 2 and 3. The media included 0.5 v/v final concentration of a fructose substrate. For each of the crotonate concentrations tested, duplicate test tubes were prepared.
Each tube was inoculated with 0.5 ml seed culture inoculum of the strict butyrogen Clostridium tyrobutyricum. The tubes were maintained at a temperature of 37° C. Twenty one hours after the inoculation of the tube with the bacteria, the different compounds from Table 1 were added to different tubes in the amounts indicated in Table 6. This was at a time of early to mid-log phase growth for the bacteria. Each fermentation of the bacteria in the media at the different concentration of crotonate derivatives were allowed to progress and were monitored to determine the bacteria growth at selected intervals of time varying from approximately 20 hours to 54 hours. Growth at the intervals was measured by reading the optical density (OD) of the fermentation liquid. Optical density was measured as described in Example 1. The ability of a tube fermentation at a particular concentration of crotonate derivative to reach a predetermined optical density was recorded in Table 6. Table 6 indicates the presence of bacterial growth to an OD of approximately 1.8 or above with a “+”, and to an optical density in a range of 0.7 to 1.5 as a “+/−”, and indicates the failure of bacterial growth to reach an optical density of approximately 0.7 as a “−”.

| SMILES | Optical density valuation of C. autoethanogenum (C. autoethanogenum; 10 ppm(m)) | Optical density valuation of C. autoethanogenum (C. autoethanogenum; 100 ppm(m)) | Optical density valuation of C. autoethanogenum (C. autoethanogenum; 500 ppm(m)) | Optical density valuation of C. autoethanogenum (C. autoethanogenum; 1000 ppm(m)) | Optical density valuation of C. autoethanogenum (C. autoethanogenum; 5000 ppm(m)) | Optical density valuation of C. autoethanogenum (C. autoethanogenum; 10000 ppm(m)) | Optical density valuation of C. tyrobutyricum ([1]; 100 ppm(m)) | Optical density valuation of C. tyrobutyricum ([1]; 500 ppm(m)) | Optical density valuation of C. tyrobutyricum ([1]; 1000 ppm(m)) | Optical density valuation of C. autoethanogenum (C. autoethanogenum; 1 ppm(m)) | Optical density valuation of C. autoethanogenum (C. autoethanogenum; 5 ppm(m)) | Optical density valuation of C. autoethanogenum (C. autoethanogenum; 50 ppm(m)) |
| --- | --- | --- | --- | --- | --- | --- | --- | --- | --- | --- | --- | --- |
| O=C(O)C=C(C(F)(F)F)C(F)(F)F [D, 4,4,4-trifluoro-3-(trifluoromethyl)crotonic acid] | + (bacterial growth to an OD of approximately 2 or above) | + (bacterial growth to an OD of approximately 2 or above) | + (bacterial growth to an OD of approximately 2 or above) | +/− (to an optical density in a range of 0.5 to 1.5) | − (failure of bacterial growth to reach an optical density of approximately 0.5) | − (failure of bacterial growth to reach an optical density of approximately 0.5) | + (bacterial growth to an OD of approximately 1.8 or above) | + (bacterial growth to an OD of approximately 1.8 or above) | + (bacterial growth to an OD of approximately 1.8 or above) | – | – | – |
| CCOC(=O)C=C(C(F)(F)F)C(F)(F)F [Compound A, ethyl 4,4,4-trifluoro-3-(trifluoromethyl)crotonate] | + (bacterial growth to an OD of approximately 2 or above) | + (bacterial growth to an OD of approximately 2 or above) | + (bacterial growth to an OD of approximately 2 or above) | + (bacterial growth to an OD of approximately 2 or above) | − (failure of bacterial growth to reach an optical density of approximately 0.5) | − (failure of bacterial growth to reach an optical density of approximately 0.5) | + (bacterial growth to an OD of approximately 1.8 or above) | +/− (to an optical density in a range of 0.7 to 1.5) | − (failure of bacterial growth to reach an optical density of approximately 0.7) | + (bacterial growth to an OD of approximately 2 or above) | + (bacterial growth to an OD of approximately 2 or above) | + (bacterial growth to an OD of approximately 2 or above) |
| CCOC(=O)/C=C(\N)C(F)(F)F [B, ethyl-3-amino-4,4,4-trifluorocrotonate] | + (bacterial growth to an OD of approximately 2 or above) | + (bacterial growth to an OD of approximately 2 or above) | + (bacterial growth to an OD of approximately 2 or above) | + (bacterial growth to an OD of approximately 2 or above) | +/− (to an optical density in a range of 0.5 to 1.5) | − (failure of bacterial growth to reach an optical density of approximately 0.5) | + (bacterial growth to an OD of approximately 1.8 or above) | + (bacterial growth to an OD of approximately 1.8 or above) | + (bacterial growth to an OD of approximately 1.8 or above) | + (bacterial growth to an OD of approximately 2 or above) | + (bacterial growth to an OD of approximately 2 or above) | + (bacterial growth to an OD of approximately 2 or above) |

From US20130071897A1, “METHOD FOR CONTROLLING UNDESIRABLE BYPRODUCTS FORMATION CAUSED BY CONTAMINATING ORGANISMS IN THE PRODUCTION OF ETHANOL FROM SYNGAS” (COSKATA, INC., priority 2011, published 2013)
